Test system: hangover symptoms after consumption of alcoholic beverages
Test: Hangover symptoms after alcohol consumption, blinded subjects given a sublingual melatonin strip before sleep
Assay type: in vivo, human
Protocol: Subjects were blind to all the experimental treatments.
A person was fed alcoholic beverages containing ethyl alcohol until the blood alcohol concentration reached 310 mg/dL at a time of 10 pm. Next, the person drank 1 l of water and immediately after that was administered a sublingual strip comprising 2.5 mg of melatonin in non-retard form. After that the person went to sleep. […] This experiment was repeated with 20 other persons with the same effect.
For comparison, the same experiment was conducted with administration of the sublingual strip without melatonin as a placebo. 19 out of 20 persons reported severe typical hangover symptoms like headaches.

Question: COc1ccc2[nH]cc(CCNC(C)=O)c2c1 [melatonin] was tested. Which “typical hangover symptoms after 8 h of physiologic sleep” value (one person, blood alcohol concentration 310 mg/dL at 10 pm, 1 l of water, then sublingual strip with 2.5 mg melatonin in non-retard form, assessed after 8 h sleep) did it give?
Answer: did not suffer from any typical hangover symptoms

Question: And the “typical hangover symptoms after 8 h of physiologic sleep (experiment repeated)” value (repeated with 20 other persons, same protocol (310 mg/dL, 1 l of water, sublingual strip with 2.5 mg melatonin in non-retard form, 8 h sleep))?
Answer: same effect

From patent publication US10179122B2, “Use of melatonin” (priority 2011, dated 2019)
